This is an account of results in patent US8932597B2 (priority 2008, dated 2015).

For this experiment, the system named is anti-M2 human monoclonal antibody Z3G1. It counts as binding.
For the substance “439 (SLLTEVETPIRNE; epitope peptide) [compound 439]”, the “Signal (peptides that bind to Z3G1)” value is 1819. Consider “634 (SLLTEVETPIRNEWGCRANDSSD; epitope peptide) [compound 634]”, for which the “Signal (peptides that show specific binding to Z3G1)” value amounted to 2265. Turning to “1250 (MALLTEVETPIRNEWGCRCN; epitope peptide) [compound 1250]”, the “Signal (peptides that bind to Z3G1)” value was determined as 2604. Take “1251 (MDLLTEVETPIRNEWGCRCN; epitope peptide) [compound 1251]”: the “Signal (peptides that bind to Z3G1)” value was 2726. Still for that read-out and setting: for “1252 (MELLTEVETPIRNEWGCRCN; epitope peptide) [compound 1252]” the value was 2679; for “1253 (MFLLTEVETPIRNEWGCRCN; epitope peptide) [compound 1253]”, 1707.

With “1254 (MGLLTEVETPIRNEWGCRCN; epitope peptide) [compound 1254]”, the “Signal (peptides that bind to Z3G1)” value worked out at 2635. Consider “1255 (MHLLTEVETPIRNEWGCRCN; epitope peptide) [compound 1255]”, for which the “Signal (peptides that bind to Z3G1)” value was 2449. For “1256 (MILLTEVETPIRNEWGCRCN; epitope peptide) [compound 1256]”, the “Signal (peptides that bind to Z3G1)” value was 1634. Same read-out and setting: the figure for “1257 (MKLLTEVETPIRNEWGCRCN; epitope peptide) [compound 1257]” is 2629; for “1258 (MLLLTEVETPIRNEWGCRCN; epitope peptide) [compound 1258]” it is 2091; for “1259 (MMLLTEVETPIRNEWGCRCN; epitope peptide) [compound 1259]” it is 2666. Regarding “1260 (MNLLTEVETPIRNEWGCRCN; epitope peptide) [compound 1260]”, the “Signal (peptides that bind to Z3G1)” value is 2733.

Regarding “1261 (MPLLTEVETPIRNEWGCRCN; epitope peptide) [compound 1261]”, the “Signal (peptides that bind to Z3G1)” value came to 2521. Consider “1262 (MQLLTEVETPIRNEWGCRCN; epitope peptide) [compound 1262]”, for which the “Signal (peptides that bind to Z3G1)” value was determined as 2526. Consider “1263 (MRLLTEVETPIRNEWGCRCN; epitope peptide) [compound 1263]”, for which the “Signal (peptides that bind to Z3G1)” value is on record as 2519.

For the substance “1264 (MVLLTEVETPIRNEWGCRCN; epitope peptide) [compound 1264]”, the “Signal (peptides that bind to Z3G1)” value is 2465. On the same count and under the same terms, the figure for “1265 (MWLLTEVETPIRNEWGCRCN; epitope peptide) [compound 1265]” is 2615.

With “1266 (MYLLTEVETPIRNEWGCRCN; epitope peptide) [compound 1266]”, the “Signal (peptides that bind to Z3G1)” value was found to be 1960. As to “1267 (MSILTEVETPIRNEWGCRCN; epitope peptide) [compound 1267]”, the “Signal (peptides that bind to Z3G1)” value is 2582. Still for that read-out and setting: for “1268 (MSMLTEVETPIRNEWGCRCN; epitope peptide) [compound 1268]” the value was 1329; for “1269 (MSVLTEVETPIRNEWGCRCN; epitope peptide) [compound 1269]”, 2111; for “1270 (MSLDTEVETPIRNEWGCRCN; epitope peptide) [compound 1270]”, 2594. As for “1271 (MSLFTEVETPIRNEWGCRCN; epitope peptide) [compound 1271]”, the “Signal (peptides that bind to Z3G1)” value came out at 2115. For the substance “1272 (MSLHTEVETPIRNEWGCRCN; epitope peptide) [compound 1272]”, the “Signal (peptides that bind to Z3G1)” value stood at 2058.

Take “1273 (MSLMTEVETPIRNEWGCRCN; epitope peptide) [compound 1273]”: the “Signal (peptides that bind to Z3G1)” value is 2804. The same measure, in the same setting: for “1274 (MSLNTEVETPIRNEWGCRCN; epitope peptide) [compound 1274]” the value was 2787. On to “1276 (MSLQTEVETPIRNEWGCRCN; epitope peptide) [compound 1276]”, for which the “Signal (peptides that bind to Z3G1)” value stood at 2792. Still for that read-out and setting: for “1277 (MSLRTEVETPIRNEWGCRCN; epitope peptide) [compound 1277]” the value was 2554; for “1278 (MSLYTEVETPIRNEWGCRCN; epitope peptide) [compound 1278]”, 1313; for “1279 (MSLLAEVETPIRNEWGCRCN; epitope peptide) [compound 1279]”, 2807. “1280 (MSLLDEVETPIRNEWGCRCN; epitope peptide) [compound 1280]”: the “Signal (peptides that bind to Z3G1)” value was found to be 2763.

For “1281 (MSLLEEVETPIRNEWGCRCN; epitope peptide) [compound 1281]”, the “Signal (peptides that bind to Z3G1)” value was 2805.

“1282 (MSLLFEVETPIRNEWGCRCN; epitope peptide) [compound 1282]”: the “Signal (peptides that bind to Z3G1)” value came out at 2581. The same measure, in the same setting: the figure for “1283 (MSLLGEVETPIRNEWGCRCN; epitope peptide) [compound 1283]” is 2717; for “1284 (MSLLHEVETPIRNEWGCRCN; epitope peptide) [compound 1284]” it is 2691. The same measure, in the same setting: the figure for “1285 (MSLLIEVETPIRNEWGCRCN; epitope peptide) [compound 1285]” is 2371. Turning to “1286 (MSLLKEVETPIRNEWGCRCN; epitope peptide) [compound 1286]”, the “Signal (peptides that bind to Z3G1)” value stood at 2825. On to “1287 (MSLLLEVETPIRNEWGCRCN; epitope peptide) [compound 1287]”, for which the “Signal (peptides that bind to Z3G1)” value was found to be 2804. The same measure, in the same setting: the figure for “1288 (MSLLMEVETPIRNEWGCRCN; epitope peptide) [compound 1288]” is 2847; for “1289 (MSLLNEVETPIRNEWGCRCN; epitope peptide) [compound 1289]” it is 2824; for “1290 (MSLLPEVETPIRNEWGCRCN; epitope peptide) [compound 1290]” it is 2728. Turning to “1291 (MSLLQEVETPIRNEWGCRCN; epitope peptide) [compound 1291]”, the “Signal (peptides that bind to Z3G1)” value is recorded as 2792.

Take “1292 (MSLLREVETPIRNEWGCRCN; epitope peptide) [compound 1292]”: the “Signal (peptides that bind to Z3G1)” value worked out at 2699. The same measure, in the same setting: the figure for “1293 (MSLLSEVETPIRNEWGCRCN; epitope peptide) [compound 1293]” is 2790. Still for that read-out and setting: for “1294 (MSLLVEVETPIRNEWGCRCN; epitope peptide) [compound 1294]” the value was 2732; for “1295 (MSLLWEVETPIRNEWGCRCN; epitope peptide) [compound 1295]”, 2531. As for “1296 (MSLLYEVETPIRNEWGCRCN; epitope peptide) [compound 1296]”, the “Signal (peptides that bind to Z3G1)” value is reported as 2464.

As for “1297 (MSLLTQVETPIRNEWGCRCN; epitope peptide) [compound 1297]”, the “Signal (peptides that bind to Z3G1)” value came out at 1697. The same measure, in the same setting: the figure for “1298 (MSLLTTVETPIRNEWGCRCN; epitope peptide) [compound 1298]” is 2699; for “1299 (MSLLTEVATPIRNEWGCRCN; epitope peptide) [compound 1299]” it is 2633.

For the substance “1300 (MSLLTEVDTPIRNEWGCRCN; epitope peptide) [compound 1300]”, the “Signal (peptides that bind to Z3G1)” value amounted to 2856.

In the case of “1301 (MSLLTEVFTPIRNEWGCRCN; epitope peptide) [compound 1301]”, the “Signal (peptides that bind to Z3G1)” value was 1858.

Consider “1302 (MSLLTEVGTPIRNEWGCRCN; epitope peptide) [compound 1302]”, for which the “Signal (peptides that bind to Z3G1)” value was found to be 2789. With “1303 (MSLLTEVHTPIRNEWGCRCN; epitope peptide) [compound 1303]”, the “Signal (peptides that bind to Z3G1)” value is 2751. Still for that read-out and setting: for “1304 (MSLLTEVITPIRNEWGCRCN; epitope peptide) [compound 1304]” the value was 2668. On to “1305 (MSLLTEVKTPIRNEWGCRCN; epitope peptide) [compound 1305]”, for which the “Signal (peptides that bind to Z3G1)” value was found to be 2708. The same measure, in the same setting: for “1306 (MSLLTEVLTPIRNEWGCRCN; epitope peptide) [compound 1306]” the value was 2714; for “1307 (MSLLTEVNTPIRNEWGCRCN; epitope peptide) [compound 1307]”, 2807; for “1308 (MSLLTEVPTPIRNEWGCRCN; epitope peptide) [compound 1308]”, 2380.

As to “1309 (MSLLTEVRTPIRNEWGCRCN; epitope peptide) [compound 1309]”, the “Signal (peptides that bind to Z3G1)” value was 2668. “1310 (MSLLTEVWTPIRNEWGCRCN; epitope peptide) [compound 1310]”: the “Signal (peptides that bind to Z3G1)” value is listed as 2546.

On to “1311 (MSLLTEVYTPIRNEWGCRCN; epitope peptide) [compound 1311]”, for which the “Signal (peptides that bind to Z3G1)” value is listed as 2181. On the same count and under the same terms, for “1312 (MSLLTEVEWPIRNEWGCRCN; epitope peptide) [compound 1312]” the value was 2541; for “1313 (CMSLLCEVETPIRNE; epitope peptide) [compound 1313]”, 2582. For the substance “1314 (CMSLCTEVETPIRNE; epitope peptide) [compound 1314]”, the “Signal (peptides that bind to Z3G1)” value amounted to 1705.

Consider “1316 (CSLLCEVETPIRNE; epitope peptide) [compound 1316]”, for which the “Signal (peptides that bind to Z3G1)” value is recorded as 2527. The same measure, in the same setting: for “1320 (MCLLTEVETPCRNE; epitope peptide) [compound 1320]” the value was 2404; for “1321 (MCLLTEVETCIRNE; epitope peptide) [compound 1321]”, 1948. On the same count and under the same terms, the figure for “1322 (MCLLTEVECPIRNE; epitope peptide) [compound 1322]” is 2421; for “1323 (MCLLTEVCTPIRNE; epitope peptide) [compound 1323]” it is 1407; for “1324 (MCLLCEVETPIRNE; epitope peptide) [compound 1324]” it is 2038.
